Measured values: ChEMBL document CHEMBL1142746, “Triaryl bis-sulfones as cannabinoid-2 receptor ligands: SAR studies” (Bioorg Med Chem Lett, 2005)

Target: Cannabinoid receptor (Homo sapiens) (UniProt P34972+P21554)
Test: Ratio of inhibition against Cannabinoid receptor 1 and Cannabinoid receptor 2
Format: protein assay

Cannabinoid receptor (Homo sapiens), sequence (P21554 whole entry, looked up): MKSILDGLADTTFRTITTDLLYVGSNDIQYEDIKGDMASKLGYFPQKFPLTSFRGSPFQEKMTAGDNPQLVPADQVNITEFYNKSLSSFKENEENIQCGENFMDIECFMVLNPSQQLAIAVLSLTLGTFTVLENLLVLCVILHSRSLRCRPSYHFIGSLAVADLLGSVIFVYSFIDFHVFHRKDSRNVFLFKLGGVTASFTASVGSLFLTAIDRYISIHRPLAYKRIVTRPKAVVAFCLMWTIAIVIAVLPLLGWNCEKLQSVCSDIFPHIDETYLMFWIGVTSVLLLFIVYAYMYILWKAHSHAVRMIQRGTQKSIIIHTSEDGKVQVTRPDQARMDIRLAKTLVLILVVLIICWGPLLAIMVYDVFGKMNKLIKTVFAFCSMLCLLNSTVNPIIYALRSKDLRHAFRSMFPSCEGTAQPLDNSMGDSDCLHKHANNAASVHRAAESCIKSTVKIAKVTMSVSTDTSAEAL
Cannabinoid receptor (Homo sapiens), sequence (P34972 whole entry, looked up): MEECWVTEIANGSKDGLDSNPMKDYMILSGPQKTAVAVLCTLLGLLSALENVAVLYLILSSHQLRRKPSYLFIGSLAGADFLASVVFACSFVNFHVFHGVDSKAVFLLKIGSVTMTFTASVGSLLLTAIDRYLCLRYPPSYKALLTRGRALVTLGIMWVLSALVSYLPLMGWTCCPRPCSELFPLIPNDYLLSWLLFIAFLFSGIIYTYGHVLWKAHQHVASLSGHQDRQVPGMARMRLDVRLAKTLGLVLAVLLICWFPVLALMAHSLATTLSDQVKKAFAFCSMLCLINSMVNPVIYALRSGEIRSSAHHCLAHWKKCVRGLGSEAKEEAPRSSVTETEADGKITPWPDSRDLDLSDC

In order of falling Selectivity:
1. C[C@H](NS(C)(=O)=O)c1ccc(S(=O)(=O)c2ccc(Cl)cc2S(=O)(=O)c2ccccc2F)cc1  4390
2. C[C@H](NS(C)(=O)=O)c1ccc(S(=O)(=O)c2ccc(C(F)(F)F)cc2S(=O)(=O)c2ccccc2F)cc1  3550
3. COc1ccc(S(=O)(=O)c2ccc([C@H](C)NS(C)(=O)=O)cc2)c(S(=O)(=O)c2ccccc2)c1  2480
4. C[C@H](NS(C)(=O)=O)c1ccc(S(=O)(=O)c2ccc(O)cc2S(=O)(=O)c2ccc(Cl)cc2)cc1  2320
5. COc1ccc(S(=O)(=O)c2cc(OC)ccc2S(=O)(=O)c2ccc([C@H](C)NS(C)(=O)=O)cc2)cc1  2260
6. COc1ccc(S(=O)(=O)c2cc(OC)ccc2S(=O)(=O)c2ccc(CNS(C)(=O)=O)cc2)cc1  2170
7. C[C@H](NS(C)(=O)=O)c1ccc(S(=O)(=O)c2ccc(Cl)cc2S(=O)(=O)c2ccccc2)cc1  1940
8. C[C@H](NS(C)(=O)=O)c1ccc(S(=O)(=O)c2ccc(Cl)cc2S(=O)(=O)c2ccccc2Cl)cc1  1780
9. Cc1ccc(S(=O)(=O)c2ccc([C@H](C)NS(C)(=O)=O)cc2)c(S(=O)(=O)c2ccccc2F)c1  1740
10. C[C@H](NS(C)(=O)=O)c1ccc(S(=O)(=O)c2ccccc2S(=O)(=O)c2ccccc2F)cc1  1450
11. COc1ccc(S(=O)(=O)c2cc(OC)ccc2Cc2ccc([C@H](C)NS(C)(=O)=O)cc2)cc1  1300
12. C[C@H](NS(C)(=O)=O)c1ccc(Cc2ccc(OC(F)(F)F)cc2S(=O)(=O)c2ccccc2F)cc1  1180
13. COc1ccc(S(=O)(=O)c2ccc([C@H](C)NS(C)(=O)=O)cc2)c(S(=O)(=O)c2ccc(Cl)cc2)c1  1150
14. C[C@H](NS(C)(=O)=O)c1ccc(S(=O)(=O)c2ccc(Cl)cc2S(=O)(=O)c2ccc(Cl)cc2)cc1  687
15. C[C@H](NS(C)(=O)=O)c1ccc(Cc2ccc(C(F)(F)F)cc2S(=O)(=O)c2ccccc2F)cc1  674
16. C[C@H](NS(C)(=O)=O)c1ccc(Cc2ccc(C(F)(F)F)cc2S(=O)(=O)c2c(F)cccc2F)cc1  584
17. C[C@H](NS(C)(=O)=O)c1ccc(S(=O)(=O)c2ccc(C(F)(F)F)cc2S(=O)(=O)c2ccc(Cl)cc2)cc1  558
18. C[C@H](NS(C)(=O)=O)c1ccc(Cc2ccc(C(F)(F)F)cc2S(=O)(=O)c2cccc(F)c2)cc1  438
19. C[C@H](NS(C)(=O)=O)c1ccc(S(=O)(=O)c2ccc(Cl)cc2C(=O)c2ccc(Cl)cc2)cc1  284
20. COc1ccc(S(=O)(=O)c2cc(OC)ccc2S(=O)(=O)c2ccc(C(C)(C)NS(C)(=O)=O)cc2)cc1  282
21. C[C@H](NS(C)(=O)=O)c1ccc(S(=O)(=O)c2ccc(Cl)cc2S(=O)(=O)c2cccc(Cl)c2)cc1  238
22. C[C@H](NS(C)(=O)=O)c1ccc(Cc2ccc(Cl)cc2S(=O)(=O)c2ccc(Cl)cc2)cc1  188
23. C[C@H](NS(C)(=O)=O)c1ccc(S(=O)(=O)c2ccc(Cl)cc2S(=O)(=O)c2ccccc2OC(F)(F)F)cc1  134
24. C[C@H](NS(C)(=O)=O)c1ccc(S(=O)(=O)c2ccccc2S(=O)(=O)c2ccc(Cl)cc2)cc1  127
25. C[C@H](NS(C)(=O)=O)c1ccc(S(=O)(=O)c2ccc(Cl)cc2C(C)(O)c2ccccc2F)cc1 (stereo not given in full)  111
26. COc1ccc(S(=O)(=O)c2cc(OC)ccc2C(=O)c2ccc([C@H](C)NS(C)(=O)=O)cc2)cc1  108
27. COc1ccc(S(=O)(=O)c2cc(OC)ccc2S(=O)(=O)c2ccc([C@@H](C)NS(C)(=O)=O)cc2)cc1  105
28. C[C@H](NS(C)(=O)=O)c1ccc(Cc2ccc(OC(F)(F)F)cc2S(=O)(=O)c2ccccc2OC(F)(F)F)cc1  60
29. CCC(c1ccc([C@H](C)NS(C)(=O)=O)cc1)c1ccc(Cl)cc1S(=O)(=O)c1ccc(Cl)cc1 (stereo not given in full)  48
30. CC(NS(C)(=O)=O)c1ccc(C(=O)c2ccc(OC(F)(F)F)cc2S(=O)(=O)c2ccccc2F)cc1 (stereo not given)  28
31. C[C@H](NS(C)(=O)=O)c1ccc(Cc2ccc(OC(F)(F)F)cc2S(=O)(=O)c2cccc(C(F)(F)F)c2)cc1  27
32. C[C@H](NS(C)(=O)=O)c1ccc(S(=O)(=O)c2ccc(Cl)cc2C(C)(O)c2ccc(Cl)cc2)cc1 (stereo not given in full)  25
33. C=C(c1ccc([C@H](C)NS(C)(=O)=O)cc1)c1ccc(OC(F)(F)F)cc1S(=O)(=O)c1ccccc1F  19
34. C=C(c1ccccc1F)c1cc(Cl)ccc1S(=O)(=O)c1ccc([C@H](C)NS(C)(=O)=O)cc1  17
35. CC(NS(C)(=O)=O)c1ccc(C(=O)c2ccc(Cl)cc2S(=O)(=O)c2ccc(Cl)cc2)cc1 (stereo not given)  16
36. C[C@H](NS(C)(=O)=O)c1ccc(S(=O)(=O)c2ccc(OC3CCCC3)cc2S(=O)(=O)c2ccc(Cl)cc2)cc1  11
37. C[C@H](NS(C)(=O)=O)c1ccc(S(=O)(=O)c2ccc(Cl)cc2Cc2ccc(Cl)cc2)cc1  11
38. CO/N=C(\c1ccc([C@H](C)NS(C)(=O)=O)cc1)c1ccc(Cl)cc1S(=O)(=O)c1ccc(Cl)cc1  5
39. C[C@H](NS(C)(=O)=O)c1ccc(S(=O)(=O)c2ccc(Cl)cc2Nc2ccc(Cl)cc2)cc1  5
40. C[C@H](NS(C)(=O)=O)c1ccc(S(=O)(=O)c2ccc(Cl)cc2Oc2ccc(Cl)cc2)cc1  3

Target: Cannabinoid receptor 2 (Homo sapiens, UniProt P34972)
Test: Inhibition constant against Cannabinoid receptor 2

Cannabinoid receptor 2, sequence (P34972 whole entry): as the sequence (P34972 whole entry, looked up) above

In order of falling Ki:
1. C[C@H](NS(C)(=O)=O)c1ccc(S(=O)(=O)c2ccc(Cl)cc2Oc2ccc(Cl)cc2)cc1  983 nM
2. CC(NS(C)(=O)=O)c1ccc(C(=O)c2ccc(Cl)cc2S(=O)(=O)c2ccc(Cl)cc2)cc1 (stereo not given)  410 nM
3. CO/N=C(\c1ccc([C@H](C)NS(C)(=O)=O)cc1)c1ccc(Cl)cc1S(=O)(=O)c1ccc(Cl)cc1  406 nM
4. C[C@H](NS(C)(=O)=O)c1ccc(S(=O)(=O)c2ccc(Cl)cc2Nc2ccc(Cl)cc2)cc1  278 nM
5. C=C(c1ccccc1F)c1cc(Cl)ccc1S(=O)(=O)c1ccc([C@H](C)NS(C)(=O)=O)cc1  247 nM
6. C[C@H](NS(C)(=O)=O)c1ccc(S(=O)(=O)c2ccc(OC3CCCC3)cc2S(=O)(=O)c2ccc(Cl)cc2)cc1  232 nM
7. C[C@H](NS(C)(=O)=O)c1ccc(S(=O)(=O)c2ccc(Cl)cc2C(C)(O)c2ccc(Cl)cc2)cc1 (stereo not given in full)  230 nM
8. C[C@H](NS(C)(=O)=O)c1ccc(S(=O)(=O)c2ccc(Cl)cc2C(=O)c2ccc(Cl)cc2)cc1  192 nM
9. CC(NS(C)(=O)=O)c1ccc(C(=O)c2ccc(OC(F)(F)F)cc2S(=O)(=O)c2ccccc2F)cc1 (stereo not given)  179 nM
10. C[C@H](NS(C)(=O)=O)c1ccc(S(=O)(=O)c2ccc(Cl)cc2Cc2ccc(Cl)cc2)cc1  164 nM
11. C[C@H](NS(C)(=O)=O)c1ccc(S(=O)(=O)c2ccc(Cl)cc2S(=O)(=O)c2ccccc2OC(F)(F)F)cc1  128 nM
12. C=C(c1ccc([C@H](C)NS(C)(=O)=O)cc1)c1ccc(OC(F)(F)F)cc1S(=O)(=O)c1ccccc1F  86 nM
13. C[C@H](NS(C)(=O)=O)c1ccc(S(=O)(=O)c2ccc(Cl)cc2C(C)(O)c2ccccc2F)cc1 (stereo not given in full)  77 nM
14. CCC(c1ccc([C@H](C)NS(C)(=O)=O)cc1)c1ccc(Cl)cc1S(=O)(=O)c1ccc(Cl)cc1 (stereo not given in full)  76 nM
15. C[C@H](NS(C)(=O)=O)c1ccc(S(=O)(=O)c2ccccc2S(=O)(=O)c2ccc(Cl)cc2)cc1  58 nM
16. COc1ccc(S(=O)(=O)c2cc(OC)ccc2C(=O)c2ccc([C@H](C)NS(C)(=O)=O)cc2)cc1  44 nM
17. C[C@H](NS(C)(=O)=O)c1ccc(Cc2ccc(OC(F)(F)F)cc2S(=O)(=O)c2cccc(C(F)(F)F)c2)cc1  35 nM
18. COc1ccc(S(=O)(=O)c2cc(OC)ccc2S(=O)(=O)c2ccc([C@@H](C)NS(C)(=O)=O)cc2)cc1  30 nM
19. C[C@H](NS(C)(=O)=O)c1ccc(S(=O)(=O)c2ccc(Cl)cc2S(=O)(=O)c2cccc(Cl)c2)cc1  23 nM
20. C[C@H](NS(C)(=O)=O)c1ccc(Cc2ccc(OC(F)(F)F)cc2S(=O)(=O)c2ccccc2OC(F)(F)F)cc1  16 nM
21. C[C@H](NS(C)(=O)=O)c1ccc(S(=O)(=O)c2ccc(O)cc2S(=O)(=O)c2ccc(Cl)cc2)cc1  13 nM
22. C[C@H](NS(C)(=O)=O)c1ccc(S(=O)(=O)c2ccc(Cl)cc2S(=O)(=O)c2ccc(Cl)cc2)cc1  10 nM
23. C[C@H](NS(C)(=O)=O)c1ccc(S(=O)(=O)c2ccccc2S(=O)(=O)c2ccccc2F)cc1  9 nM
24. C[C@H](NS(C)(=O)=O)c1ccc(S(=O)(=O)c2ccc(C(F)(F)F)cc2S(=O)(=O)c2ccc(Cl)cc2)cc1  8 nM
25. C[C@H](NS(C)(=O)=O)c1ccc(Cc2ccc(Cl)cc2S(=O)(=O)c2ccc(Cl)cc2)cc1  6.7 nM
26. C[C@H](NS(C)(=O)=O)c1ccc(S(=O)(=O)c2ccc(Cl)cc2S(=O)(=O)c2ccccc2Cl)cc1  6 nM
27. COc1ccc(S(=O)(=O)c2cc(OC)ccc2S(=O)(=O)c2ccc(C(C)(C)NS(C)(=O)=O)cc2)cc1  6 nM
28. C[C@H](NS(C)(=O)=O)c1ccc(Cc2ccc(C(F)(F)F)cc2S(=O)(=O)c2cccc(F)c2)cc1  3.5 nM
29. C[C@H](NS(C)(=O)=O)c1ccc(S(=O)(=O)c2ccc(Cl)cc2S(=O)(=O)c2ccccc2)cc1  2 nM
30. C[C@H](NS(C)(=O)=O)c1ccc(Cc2ccc(C(F)(F)F)cc2S(=O)(=O)c2c(F)cccc2F)cc1  1.8 nM
31. COc1ccc(S(=O)(=O)c2cc(OC)ccc2S(=O)(=O)c2ccc(CNS(C)(=O)=O)cc2)cc1  1.3 nM
32. C[C@H](NS(C)(=O)=O)c1ccc(Cc2ccc(C(F)(F)F)cc2S(=O)(=O)c2ccccc2F)cc1  1 nM
33. C[C@H](NS(C)(=O)=O)c1ccc(S(=O)(=O)c2ccc(Cl)cc2S(=O)(=O)c2ccccc2F)cc1  1 nM
34. COc1ccc(S(=O)(=O)c2ccc([C@H](C)NS(C)(=O)=O)cc2)c(S(=O)(=O)c2ccc(Cl)cc2)c1  0.9 nM
35. C[C@H](NS(C)(=O)=O)c1ccc(S(=O)(=O)c2ccc(C(F)(F)F)cc2S(=O)(=O)c2ccccc2F)cc1  0.9 nM
36. COc1ccc(S(=O)(=O)c2ccc([C@H](C)NS(C)(=O)=O)cc2)c(S(=O)(=O)c2ccccc2)c1  0.6 nM
37. COc1ccc(S(=O)(=O)c2cc(OC)ccc2Cc2ccc([C@H](C)NS(C)(=O)=O)cc2)cc1  0.6 nM
38. Cc1ccc(S(=O)(=O)c2ccc([C@H](C)NS(C)(=O)=O)cc2)c(S(=O)(=O)c2ccccc2F)c1  0.5 nM
39. COc1ccc(S(=O)(=O)c2cc(OC)ccc2S(=O)(=O)c2ccc([C@H](C)NS(C)(=O)=O)cc2)cc1  0.4 nM
40. C[C@H](NS(C)(=O)=O)c1ccc(Cc2ccc(OC(F)(F)F)cc2S(=O)(=O)c2ccccc2F)cc1  0.4 nM
